Measurements from patent publication US9340590B2 (priority 2011, dated 2016).
Read-outs that look alike come from different tables or passages of the source. Positions of bridges follow the written chain, without caps; N, C: chain ends. Residues, ends and D or L forms follow the SMILES beside them.

Molecular target: hNav1.7 (Homo sapiens, UniProt Q15858)
Test: cell-based
Assay type: cell-based
Details: read-out: IWQ Use Nav1.7

Chain of hNav1.7 (Q15858 whole entry, looked up): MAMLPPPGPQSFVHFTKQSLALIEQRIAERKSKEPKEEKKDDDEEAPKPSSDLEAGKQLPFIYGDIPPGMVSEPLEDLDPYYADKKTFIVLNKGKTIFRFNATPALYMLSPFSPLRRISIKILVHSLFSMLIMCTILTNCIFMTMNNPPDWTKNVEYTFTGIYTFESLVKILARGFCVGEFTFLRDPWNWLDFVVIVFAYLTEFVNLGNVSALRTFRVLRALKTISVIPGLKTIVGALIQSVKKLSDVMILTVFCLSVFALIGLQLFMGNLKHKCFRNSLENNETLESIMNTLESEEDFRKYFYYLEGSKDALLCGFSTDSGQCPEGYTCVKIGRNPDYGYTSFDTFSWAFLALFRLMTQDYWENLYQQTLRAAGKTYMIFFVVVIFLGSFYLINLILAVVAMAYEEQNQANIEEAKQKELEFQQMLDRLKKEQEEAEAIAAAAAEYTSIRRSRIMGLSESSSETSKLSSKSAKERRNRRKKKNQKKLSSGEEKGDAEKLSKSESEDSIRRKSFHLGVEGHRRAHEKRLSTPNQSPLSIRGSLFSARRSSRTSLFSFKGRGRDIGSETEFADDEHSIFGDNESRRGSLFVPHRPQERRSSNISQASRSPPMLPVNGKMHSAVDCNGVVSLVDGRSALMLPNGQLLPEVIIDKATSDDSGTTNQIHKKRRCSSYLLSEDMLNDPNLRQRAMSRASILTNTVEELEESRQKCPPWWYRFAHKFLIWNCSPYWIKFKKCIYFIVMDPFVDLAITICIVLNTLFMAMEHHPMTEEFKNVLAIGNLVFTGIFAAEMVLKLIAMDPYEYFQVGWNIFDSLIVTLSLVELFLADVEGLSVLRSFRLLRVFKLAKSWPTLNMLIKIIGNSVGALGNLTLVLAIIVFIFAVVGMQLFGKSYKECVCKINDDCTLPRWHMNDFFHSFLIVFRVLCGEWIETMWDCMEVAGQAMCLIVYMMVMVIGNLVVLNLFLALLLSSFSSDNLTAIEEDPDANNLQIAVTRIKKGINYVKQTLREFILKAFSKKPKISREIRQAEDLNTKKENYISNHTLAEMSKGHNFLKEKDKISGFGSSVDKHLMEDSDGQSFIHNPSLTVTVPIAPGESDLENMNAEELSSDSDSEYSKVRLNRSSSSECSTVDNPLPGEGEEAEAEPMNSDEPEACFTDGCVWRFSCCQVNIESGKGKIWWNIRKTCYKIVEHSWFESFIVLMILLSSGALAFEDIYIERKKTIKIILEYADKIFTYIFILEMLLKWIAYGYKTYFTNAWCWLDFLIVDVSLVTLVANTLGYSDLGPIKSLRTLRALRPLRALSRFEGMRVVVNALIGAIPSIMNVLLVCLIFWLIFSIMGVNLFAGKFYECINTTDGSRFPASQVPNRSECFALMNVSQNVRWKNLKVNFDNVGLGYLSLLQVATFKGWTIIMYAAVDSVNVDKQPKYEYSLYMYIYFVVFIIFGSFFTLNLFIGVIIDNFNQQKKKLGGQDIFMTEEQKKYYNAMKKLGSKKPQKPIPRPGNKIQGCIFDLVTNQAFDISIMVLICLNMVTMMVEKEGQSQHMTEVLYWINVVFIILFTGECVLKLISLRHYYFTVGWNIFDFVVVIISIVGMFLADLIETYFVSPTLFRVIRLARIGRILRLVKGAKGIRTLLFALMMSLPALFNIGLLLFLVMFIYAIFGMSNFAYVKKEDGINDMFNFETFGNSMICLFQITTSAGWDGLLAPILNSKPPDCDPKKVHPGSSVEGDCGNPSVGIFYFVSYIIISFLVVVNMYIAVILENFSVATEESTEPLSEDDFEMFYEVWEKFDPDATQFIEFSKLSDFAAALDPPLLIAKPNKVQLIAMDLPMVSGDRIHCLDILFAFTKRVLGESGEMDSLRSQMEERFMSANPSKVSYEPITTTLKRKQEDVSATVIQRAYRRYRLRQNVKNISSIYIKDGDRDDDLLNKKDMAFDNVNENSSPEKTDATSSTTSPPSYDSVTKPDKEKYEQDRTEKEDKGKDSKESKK

Structure (SMILES)	IC50	IC50 (IonWorks Quattro, Use)
CC[C@H](C)[C@@H]1NC(=O)[C@@H]2CSSC[C@@H]3NC(=O)[C@H](C(C)C)NC(=O)[C@H](CC(C)C)NC(=O)[C@H](CC(N)=O)NC(=O)[C@@H]4CCCN4C(=O)[C@H](CCCNC(=N)N)NC(=O)[C@H](CSSC[C@H](NC(=O)[C@@H](N)CC(=O)O)C(=O)N[C@@H](CC(C)C)C(=O)NCC(=O)N[C@@H](Cc4ccccc4)C(=O)N[C@@H](CCSC)C(=O)N[C@@H](CCCNC(=N)N)C(=O)N[C@@H](CCC(=O)O)C(=O)N2)NC(=O)[C@H](CSSC[C@@H](C(=O)N[C@@H](CCCCN)C(=O)N[C@@H](Cc2ccc(O)cc2)C(=O)N[C@H](C(=O)N[C@@H](Cc2ccccc2)C(N)=O)C(C)C)NC(=O)[C@H](Cc2c[nH]c4ccccc24)NC(=O)[C@H](CCCCN)NC(=O)[C@H](Cc2c[nH]cn2)NC(=O)[C@H]([C@@H](C)O)NC(=O)[C@H](CCCNC(=N)N)NC(=O)[C@H](CO)NC3=O)NC(=O)[C@H](CCCCN)NC(=O)[C@H](CC(=O)O)NC(=O)[C@H](CC(N)=O)NC(=O)[C@H](CC(=O)O)NC(=O)[C@@H]2CCCN2C1=O [[Glu8]GpTx-1(1-34)] (H-DCLGFMRECIPDNDKCCRPNLVCSRTHKWCKYVF-NH2; disulfide 2-17, 9-23, 16-30)	1700 nM	–
CC[C@H](C)[C@@H]1NC(=O)[C@@H]2CSSC[C@@H]3NC(=O)[C@H](C(C)C)NC(=O)[C@H](CC(C)C)NC(=O)[C@H](CC(N)=O)NC(=O)[C@@H]4CCCN4C(=O)[C@H](CCCNC(=N)N)NC(=O)[C@H](CSSC[C@H](NC(=O)[C@@H](N)CC(=O)O)C(=O)N[C@@H](CC(C)C)C(=O)NCC(=O)N[C@@H](Cc4ccccc4)C(=O)N[C@@H](CCSC)C(=O)N[C@@H](CCCNC(=N)N)C(=O)N[C@@H](CCCCN)C(=O)N2)NC(=O)[C@H](CSSC[C@@H](C(=O)N[C@@H](CCCCN)C(=O)N[C@@H](Cc2ccc(O)cc2)C(=O)N[C@H](C(=O)N[C@@H](Cc2ccccc2)C(N)=O)C(C)C)NC(=O)[C@H](Cc2c[nH]c4ccccc24)NC(=O)[C@H](CCCCN)NC(=O)[C@H](Cc2c[nH]cn2)NC(=O)[C@H]([C@@H](C)O)NC(=O)[C@H](CCCNC(=N)N)NC(=O)[C@H](CO)NC3=O)NC(=O)[C@H](CCCCN)NC(=O)[C@H](CC(=O)O)NC(=O)[C@H](CC(N)=O)NC(=O)[C@H](C)NC(=O)[C@@H]2CCCN2C1=O [compound 4] (H-DCLGFMRKCIPANDKCCRPNLVCSRTHKWCKYVF-NH2; disulfide 2-17, 9-23, 16-30)	–	120 nM
CC[C@H](C)[C@@H]1NC(=O)[C@@H]2CSSC[C@@H]3NC(=O)[C@H](C(C)C)NC(=O)[C@H](CC(C)C)NC(=O)[C@H](C)NC(=O)[C@@H]4CCCN4C(=O)[C@H](CCCNC(=N)N)NC(=O)[C@H](CSSC[C@H](NC(=O)[C@@H](N)CC(=O)O)C(=O)N[C@@H](CC(C)C)C(=O)NCC(=O)N[C@@H](Cc4ccccc4)C(=O)N[C@@H](CCSC)C(=O)N[C@@H](CCCNC(=N)N)C(=O)N[C@@H](CCCCN)C(=O)N2)NC(=O)[C@H](CSSC[C@@H](C(=O)N[C@@H](CCCCN)C(=O)N[C@@H](Cc2ccc(O)cc2)C(=O)N[C@H](C(=O)N[C@@H](Cc2ccccc2)C(N)=O)C(C)C)NC(=O)[C@H](Cc2c[nH]c4ccccc24)NC(=O)[C@H](CCCCN)NC(=O)[C@H](Cc2c[nH]cn2)NC(=O)[C@H]([C@@H](C)O)NC(=O)[C@H](CCCNC(=N)N)NC(=O)[C@H](CO)NC3=O)NC(=O)[C@H](CCCCN)NC(=O)[C@H](CC(=O)O)NC(=O)[C@H](CC(N)=O)NC(=O)[C@H](CC(=O)O)NC(=O)[C@@H]2CCCN2C1=O [compound 7] (H-DCLGFMRKCIPDNDKCCRPALVCSRTHKWCKYVF-NH2; disulfide 2-17, 9-23, 16-30)	690 nM	–
CC[C@H](C)[C@@H]1NC(=O)[C@@H]2CSSC[C@@H]3NC(=O)[C@H](C)NC(=O)[C@H](CC(C)C)NC(=O)[C@H](CC(N)=O)NC(=O)[C@@H]4CCCN4C(=O)[C@H](CCCNC(=N)N)NC(=O)[C@H](CSSC[C@H](NC(=O)[C@@H](N)CC(=O)O)C(=O)N[C@@H](CC(C)C)C(=O)NCC(=O)N[C@@H](Cc4ccccc4)C(=O)N[C@@H](CCSC)C(=O)N[C@@H](CCCNC(=N)N)C(=O)N[C@@H](CCCCN)C(=O)N2)NC(=O)[C@H](CSSC[C@@H](C(=O)N[C@@H](CCCCN)C(=O)N[C@@H](Cc2ccc(O)cc2)C(=O)N[C@H](C(=O)N[C@@H](Cc2ccccc2)C(N)=O)C(C)C)NC(=O)[C@H](Cc2c[nH]c4ccccc24)NC(=O)[C@H](CCCCN)NC(=O)[C@H](Cc2c[nH]cn2)NC(=O)[C@H]([C@@H](C)O)NC(=O)[C@H](CCCNC(=N)N)NC(=O)[C@H](CO)NC3=O)NC(=O)[C@H](CCCCN)NC(=O)[C@H](CC(=O)O)NC(=O)[C@H](CC(N)=O)NC(=O)[C@H](CC(=O)O)NC(=O)[C@@H]2CCCN2C1=O [compound 8] (H-DCLGFMRKCIPDNDKCCRPNLACSRTHKWCKYVF-NH2; disulfide 2-17, 9-23, 16-30)	–	380 nM
CC[C@H](C)[C@@H]1NC(=O)[C@@H]2CSSC[C@@H]3NC(=O)[C@H](C(C)C)NC(=O)[C@H](CC(C)C)NC(=O)[C@H](CC(N)=O)NC(=O)[C@@H]4CCCN4C(=O)[C@H](CCCNC(=N)N)NC(=O)[C@H](CSSC[C@H](NC(=O)[C@@H](N)CC(=O)O)C(=O)N[C@@H](CC(C)C)C(=O)NCC(=O)N[C@@H](Cc4ccccc4)C(=O)N[C@@H](CCSC)C(=O)N[C@@H](CCCNC(=N)N)C(=O)N[C@@H](CCCCN)C(=O)N2)NC(=O)[C@H](CSSC[C@@H](C(=O)N[C@@H](CCCCN)C(=O)N[C@@H](C)C(=O)N[C@H](C(=O)N[C@@H](Cc2ccccc2)C(N)=O)C(C)C)NC(=O)[C@H](Cc2c[nH]c4ccccc24)NC(=O)[C@H](CCCCN)NC(=O)[C@H](Cc2c[nH]cn2)NC(=O)[C@H]([C@@H](C)O)NC(=O)[C@H](CCCNC(=N)N)NC(=O)[C@H](CO)NC3=O)NC(=O)[C@H](CCCCN)NC(=O)[C@H](CC(=O)O)NC(=O)[C@H](CC(N)=O)NC(=O)[C@H](CC(=O)O)NC(=O)[C@@H]2CCCN2C1=O [compound 14] (H-DCLGFMRKCIPDNDKCCRPNLVCSRTHKWCKAVF-NH2; disulfide 2-17, 9-23, 16-30)	800 nM	–
CC[C@H](C)[C@@H]1NC(=O)[C@@H]2CSSC[C@@H]3NC(=O)[C@H](C(C)C)NC(=O)[C@H](CC(C)C)NC(=O)[C@H](CC(N)=O)NC(=O)[C@@H]4CCCN4C(=O)[C@H](CCCNC(=N)N)NC(=O)[C@H](CSSC[C@H](NC(=O)[C@@H](N)CC(=O)O)C(=O)N[C@@H](CC(C)C)C(=O)NCC(=O)N[C@@H](Cc4ccccc4)C(=O)N[C@@H](CCSC)C(=O)N[C@@H](CCCNC(=N)N)C(=O)N[C@@H](CCCCN)C(=O)N2)NC(=O)[C@H](CSSC[C@@H](C(=O)N[C@@H](CCCCN)C(=O)N[C@@H](Cc2ccc(O)cc2)C(=O)N[C@H](C(=O)N[C@@H](Cc2ccccc2)C(N)=O)C(C)C)NC(=O)[C@H](Cc2c[nH]c4ccccc24)NC(=O)[C@H](CCCCN)NC(=O)[C@H](Cc2c[nH]cn2)NC(=O)[C@H]([C@@H](C)O)NC(=O)[C@H](CCCNC(=N)N)NC(=O)[C@H](CO)NC3=O)NC(=O)[C@H](CCCCN)NC(=O)[C@H](CC(=O)O)NC(=O)[C@H](CC(N)=O)NC(=O)[C@H](CCCCN)NC(=O)[C@@H]2CCCN2C1=O [compound 42] (H-DCLGFMRKCIPKNDKCCRPNLVCSRTHKWCKYVF-NH2; disulfide 2-17, 9-23, 16-30)	120 nM	–
